DBAASP
In brackets after ≈: the same amount, converted by molar mass. Each block holds one compound with its values, some of them ahead of it.

Columns and labels:
Assay in all cases: ≥ marks a high value that may be exact or a test limit, other limits are often not marked, values filed in µg/mL are converted to µM
[1] = system: Bacillus subtilis ATCC 6633
[2] = system: Escherichia coli ATCC 25922
[3] = system: Staphylococcus aureus ATCC 25923
[4] = system: Candida albicans ATCC 20032
[5] = system: Staphylococcus aureus Cowan 1
[6] = system: Bacillus megaterium Bm11
[7] = system: Candida albicans ATCC 10231
[8] = system: Staphylococcus capitis 1
[9] = system: Yersinia pseudotuberculosis YPIII
[10] = system: Saccharomyces cerevisiae
[11] = system: Pseudomonas aeruginosa ATCC 15692
[12] = system: Micrococcus luteus
[13] = system: Salmonella typhimurium
[14] = system: Shigella dysenteriae
[15] = system: Escherichia coli
[16] = system: Serratia marcescens
[17] = system: Pseudomonas aeruginosa
[18] = system: Proteus mirabilis
[19] = system: Bacillus subtilis
[20] = system: Candida albicans
[21] = system: Klebsiella pneumoniae
[22] = system: Staphylococcus epidermidis RP62A/1
[23] = system: Klebsiella pneumoniae ATCC 700603
[24] = system: Acinetobacter baumannii NM8
[25] = system: Candida albicans ATCC 90028
[26] = system: Stenotrophomonas maltophilia B32/4
[27] = system: Staphylococcus epidermidis RP62A
[28] = system: Escherichia coli ATCC 25726
[29] = system: Pseudomonas aeruginosa ATCC 27853

SMILES: CC[C@H](C)[C@H](NC(=O)CNC(=O)[C@H](CO)NC(=O)[C@H](CC(C)C)NC(=O)[C@@H](NC(=O)[C@H](C)NC(=O)CNC(=O)[C@@H](NC(=O)[C@H](CC(C)C)NC(=O)[C@@H]1CCCN1C(=O)[C@H](CC(C)C)NC(=O)[C@@H](N)Cc1ccccc1)[C@@H](C)CC)C(C)C)C(=O)N[C@@H](CC(C)C)C(N)=O [FLPLIGAVLSGIL]
MIC [5]: ≥ 40 µM
MIC [6]: ≥ 40 µM
MIC [2]: > 40 µM
MIC [7]: > 40 µM
MIC [8]: ≥ 40 µM
MIC [9]: ≥ 40 µM

SMILES: CC[C@H](C)[C@H](NC(=O)CN)C(=O)NCC(=O)N[C@H](C(=O)N[C@@H](CCCCN)C(=O)N[C@@H](Cc1ccccc1)C(=O)N[C@@H](CC(C)C)C(=O)NCC(=O)NCC(=O)N[C@H](C(=O)N[C@@H](CCCCN)C(=O)N[C@H](C(=O)N[C@@H](C)C(=O)N[C@@H](CC(C)C)C(=O)N[C@@H](CCCCN)C(=O)NCC(=O)N[C@@H](C)C(=O)N[C@@H](CC(C)C)C(=O)N[C@@H](CCCCN)C(=O)N[C@@H](CCC(=O)O)C(=O)N[C@@H](CC(C)C)C(=O)N[C@@H](C)C(=O)N[C@@H](Cc1ccccc1)C(=O)N[C@H](C(=O)N[C@@H](Cc1ccc(O)cc1)C(=O)N[C@H](C(=O)N[C@@H](CC(N)=O)C(N)=O)C(C)C)[C@@H](C)O)[C@@H](C)O)C(C)C)[C@@H](C)O [GIGTKFLGGVKTALKGALKELAFTYVN]
MIC [1]: ≥ 35.7 µM
MIC [2]: 13.4 µM (≈ 37.5 µg/mL)
MIC [3]: 6.72 µM (≈ 18.8 µg/mL)
MIC [4]: ≥ 35.7 µM

SMILES: CC[C@H](C)[C@H](NC(=O)[C@H](CC(C)C)NC(=O)[C@H](CCCCN)NC(=O)[C@H](CO)NC(=O)[C@H](C)NC(=O)CNC(=O)[C@H](CCCCN)NC(=O)[C@H](CC(C)C)NC(=O)[C@H](C)NC(=O)[C@H](C)NC(=O)[C@H](CCCCN)NC(=O)[C@H](C)NC(=O)[C@H](CC(C)C)NC(=O)[C@H](CC(C)C)NC(=O)CNC(=O)[C@H](Cc1ccccc1)NC(=O)[C@@H](NC(=O)CN)C(C)C)C(=O)N1CCC[C@H]1C(=O)N[C@@H](Cc1cnc[nH]1)C(=O)N[C@@H](CC(C)C)C(=O)N[C@@H](CC(C)C)C(=O)N1CCC[C@H]1C(=O)N[C@@H](CO)C(=O)N[C@@H](CCCN=C(N)N)C(=O)N[C@@H](CCC(N)=O)C(=O)N[C@@H](CCC(N)=O)C(=O)O [GVFGLLAKAALKGASKLIPHLLPSRQQ]
MIC [10]: 16 µM (≈ 45 µg/mL)
MIC [11]: 5.66 µM (≈ 15.9 µg/mL)
MIC [12]: 0.5 µM (≈ 1.41 µg/mL)
MIC [2]: 1 µM (≈ 2.81 µg/mL)
MIC [3]: 1 µM (≈ 2.81 µg/mL)

SMILES: CC[C@H](C)[C@H](NC(=O)CNC(=O)[C@H](CO)NC(=O)[C@H](CC(C)C)NC(=O)[C@@H](NC(=O)[C@H](CCCN=C(N)N)NC(=O)CNC(=O)[C@H](C)NC(=O)[C@H](CC(C)C)NC(=O)[C@@H]1CCCN1C(=O)[C@H](CC(C)C)NC(=O)[C@@H](N)Cc1ccccc1)C(C)C)C(=O)N[C@@H](CC(C)C)C(N)=O [FLPLAGRVLSGIL]
MIC [5]: ≥ 40 µM
MIC [6]: 20 µM (≈ 27.1 µg/mL)
MIC [2]: > 40 µM
MIC [7]: 20 µM (≈ 27.1 µg/mL)
MIC [8]: ≥ 40 µM
MIC [9]: ≥ 40 µM

SMILES: CC[C@H](C)[C@H](NC(=O)CN)C(=O)N[C@@H](Cc1ccccc1)C(=O)N[C@@H](CO)C(=O)N[C@@H](CCCCN)C(=O)N[C@@H](CC(C)C)C(=O)N[C@@H](C)C(=O)NCC(=O)N[C@@H](CCCCN)C(=O)N[C@@H](CCCCN)C(=O)N[C@H](C(=O)N[C@@H](CCCCN)C(=O)N[C@@H](CC(N)=O)C(=O)N[C@@H](CC(C)C)C(=O)N[C@@H](CC(C)C)C(=O)N[C@H](C(=O)N[C@@H](CO)C(=O)NCC(=O)N[C@@H](CC(C)C)C(=O)N[C@@H](CCCCN)C(=O)N[C@@H](CC(N)=O)C(=O)N[C@H](C(=O)NCC(=O)N[C@@H](CCCCN)C(=O)N[C@@H](CCC(=O)O)C(=O)N[C@H](C(=O)NCC(=O)N[C@@H](CCSC)C(=O)N[C@@H](CC(=O)O)C(=O)N[C@H](C(=O)N[C@H](C(=O)N[C@@H](CCCN=C(N)N)C(=O)N[C@H](C(=O)NCC(=O)N[C@H](C(=O)N[C@@H](CC(=O)O)C(=O)N[C@H](C(=O)N[C@@H](C)C(=O)NCC(=O)N[C@H]1CSSC[C@@H](C(=O)O)NC(=O)[C@H](CCC(=O)O)NC(=O)CNC(=O)[C@H](CCCCN)NC(=O)[C@H]([C@@H](C)CC)NC(=O)[C@H](CCCCN)NC1=O)[C@@H](C)CC)[C@@H](C)CC)[C@@H](C)O)C(C)C)C(C)C)C(C)C)[C@@H](C)CC)[C@@H](C)CC)[C@@H](C)CC [GIFSKLAGKKIKNLLISGLKNIGKEVGMDVVRTGIDIAGCKIKGEC]
MIC [13]: 5.19 µM (≈ 25 µg/mL)
MIC [14]: 2.6 µM (≈ 12.5 µg/mL)
MIC [12]: 1.31 µM (≈ 6.3 µg/mL)
MIC [15]: 5.19 µM (≈ 25 µg/mL)
MIC [16]: ≥ 41.5 µM
MIC [17]: 5.19 µM (≈ 25 µg/mL)
MIC [18]: ≥ 41.5 µM
MIC [19]: 1.31 µM (≈ 6.3 µg/mL)
MIC [20]: 41.5 µM (≈ 200 µg/mL)
MIC [21]: 2.6 µM (≈ 12.5 µg/mL)

SMILES: CC[C@H](C)[C@H](N)C(=O)N[C@@H](CC(C)C)C(=O)NCC(=O)N[C@@H](CCCCN)C(=O)N[C@@H](CC(C)C)C(=O)N[C@@H](CC(C)C)C(=O)N[C@@H](CO)C(=O)N[C@H](C(=O)N[C@@H](C)C(=O)N[C@@H](C)C(=O)NCC(=O)N[C@@H](CC(C)C)C(=O)N[C@@H](CC(C)C)C(=O)N[C@@H](CCCCN)C(=O)N[C@@H](CC(N)=O)C(=O)N[C@@H](CC(C)C)C(N)=O)[C@@H](C)O [ILGKLLSTAAGLLKNL]
MIC [22]: 8 µM (≈ 13 µg/mL)
MIC [23]: 128 µM (≈ 208 µg/mL)
MIC [24]: ≥ 32 µM
MIC [25]: ≥ 32 µM
MIC [3]: 16 µM (≈ 26 µg/mL)
MIC [26]: ≥ 64 µM
MIC [27]: 16 µM (≈ 26 µg/mL)
MIC [28]: ≥ 32 µM
MIC [29]: 128 µM (≈ 208 µg/mL)

Other lines, results leading:

MIC [1]: ≥ 64.6 µM
MIC [2]: > 64.6 µM
MIC [3]: > 64.6 µM
MIC [4]: ≥ 64.6 µM
SMILES: CC[C@H](C)[C@H](N)C(=O)N[C@@H](CC(C)C)C(=O)NCC(=O)N1CCC[C@H]1C(=O)N[C@H](C(=O)N[C@@H](CC(C)C)C(=O)NCC(=O)N[C@@H](CC(C)C)C(=O)N[C@H](C(=O)NCC(=O)N[C@@H](CO)C(=O)N[C@@H](C)C(=O)N[C@@H](CC(C)C)C(=O)NCC(=O)NCC(=O)N[C@@H](CC(C)C)C(=O)N[C@H](C(N)=O)[C@@H](C)CC)C(C)C)C(C)C [ILGPVLGLVGSALGGLI]

MIC [1]: 9.66 µM (≈ 18.8 µg/mL)
MIC [2]: > 51.4 µM
MIC [3]: 4.83 µM (≈ 9.4 µg/mL)
MIC [4]: 4.83 µM (≈ 9.4 µg/mL)
SMILES: CC[C@H](C)[C@H](N)C(=O)N[C@@H](CC(C)C)C(=O)NCC(=O)N1CCC[C@H]1C(=O)N[C@H](C(=O)N[C@@H](CC(C)C)C(=O)NCC(=O)N[C@@H](CC(C)C)C(=O)N[C@H](C(=O)NCC(=O)N[C@@H](CC(N)=O)C(=O)N[C@@H](C)C(=O)N[C@@H](CC(C)C)C(=O)NCC(=O)NCC(=O)N[C@@H](CC(C)C)C(=O)N[C@H](C(=O)N[C@@H](CCCCN)C(=O)N[C@@H](CCCCN)C(=O)N[C@@H](CC(C)C)C(N)=O)[C@@H](C)CC)C(C)C)C(C)C [ILGPVLGLVGNALGGLIKKL]

MIC [22]: ≥ 32 µM
MIC [23]: 256 µM (≈ 405 µg/mL)
MIC [24]: ≥ 64 µM
MIC [25]: ≥ 64 µM
MIC [2]: 150 µM (≈ 237 µg/mL)
MIC [3]: 50 µM (≈ 79.1 µg/mL)
MIC [26]: ≥ 128 µM
MIC [27]: ≥ 64 µM
MIC [28]: ≥ 256 µM
MIC [29]: 256 µM (≈ 405 µg/mL)
SMILES: CC[C@H](C)[C@H](N)C(=O)N[C@@H](CC(C)C)C(=O)NCC(=O)N[C@@H](CCCCN)C(=O)N[C@@H](CC(C)C)C(=O)N[C@@H](CC(C)C)C(=O)N[C@@H](CO)C(=O)N[C@H](C(=O)N[C@@H](C)C(=O)N[C@@H](C)C(=O)NCC(=O)N[C@@H](CC(C)C)C(=O)N[C@@H](CC(C)C)C(=O)N[C@@H](CO)C(=O)N[C@@H](CC(N)=O)C(=O)N[C@@H](CC(C)C)C(N)=O)[C@@H](C)O [ILGKLLSTAAGLLSNL]
